Measurements from ChEMBL document CHEMBL5260857, “Identification of specific carbonic anhydrase inhibitors via in situ click chemistry, phage-display and synthetic peptide libraries: comparison of the methods and structural study” (RSC Med Chem, 2023).
Where a SMILES comes first, the peptide text is derived from it. The star is where a group is joined. X2 = NS(=O)(=O)c1ccc(CCNC(=O)Cn2cc(COC(=O)*)nn2)cc1; X1 = NS(=O)(=O)c1ccc(CO/N=C/C(=O)*)cc1

These molecules were tested against Carbonic anhydrase 9 (Homo sapiens, UniProt Q16790) (assay: Inhibition of human carbonic anhydrase 9 assessed as Ki by stopped-flow carbon dioxide hydration assay).

| Compound | Ki [µM] |
| --- | --- |
| C[C@H](NC(=O)[C@H](Cc1cnc[nH]1)NC(=O)[C@H](C)NC(=O)[C@H](CCCCN)NC(=O)[C@H](Cc1ccc(O)cc1)NC(=O)[C@@H]1CCCN1C(=O)[C@H](Cc1cnc[nH]1)NC(=O)/C=N/OCc1ccc(S(N)(=O)=O)cc1)C(=O)N[C@@H](Cc1cnc[nH]1)C(N)=O (X1-HPYKAHAH-NH2) | 0.358 |
| CC(C)C[C@H](NC(=O)[C@H](CO)NC(=O)/C=N/OCc1ccc(S(N)(=O)=O)cc1)C(=O)N1CCC[C@H]1C(=O)N[C@@H](Cc1ccccc1)C(N)=O (X1-SLPF-NH2) | 0.936 |
| [N-]=[N+]=NCC(=O)NCCc1ccc(S(N)(=O)=O)cc1 | 1.2 |
| NOCc1ccc(S(N)(=O)=O)cc1 | 0.844 |
| CC(C)C[C@H](NC(=O)[C@H](CO)NC(=O)/C=N/OCc1ccc(S(N)(=O)=O)cc1)C(N)=O | 2.5 |
| CC(C)C[C@@H](C(N)=O)n1cc(-c2ccc(S(N)(=O)=O)cc2)nn1 | 0.011 |
| NC(=O)[C@H](CO)NC(=O)/C=N/OCc1ccc(S(N)(=O)=O)cc1 | 1.8 |
| CC(C)C[C@H](NC(=O)[C@H](CO)NC(=O)/C=N/OCc1ccc(S(N)(=O)=O)cc1)C(=O)N1CCC[C@H]1C(=O)N[C@@H](Cc1ccccc1)C(=O)N[C@H](C(=O)N[C@H](C(=O)N[C@@H](Cc1ccc(O)cc1)C(=O)N[C@@H](CC(N)=O)C(N)=O)C(C)C)[C@@H](C)O (X1-SLPFTVYN-NH2) | 1.37 |
| CC(C)C[C@H](NC(=O)[C@H](CCC(N)=O)NC(=O)[C@H](Cc1ccc(O)cc1)NC(=O)[C@H](Cc1ccccc1)NC(=O)[C@@H](N)CCCCNC(=O)OCc1cn(CC(=O)NCCc2ccc(S(N)(=O)=O)cc2)nn1)C(=O)N[C@@H](Cc1ccc(O)cc1)C(=O)N[C@@H](Cc1ccccc1)C(N)=O (H-K(X2)FYQLYF-NH2) | 0.069 |
| C#Cc1ccc(S(N)(=O)=O)cc1 | 0.15 |
| CC(C)C[C@H](NC(=O)[C@H](CO)NC(=O)/C=N/OCc1ccc(S(N)(=O)=O)cc1)C(=O)N1CCC[C@H]1C(N)=O | 2.8 |
| NC(=O)[C@H](Cc1ccc(O)cc1)NC(=O)[C@H](Cc1ccc(O)cc1)NC(=O)[C@H](Cc1ccccc1)NC(=O)[C@H](Cc1c[nH]c2ccccc12)NC(=O)[C@H](Cc1ccccc1)NC(=O)[C@H](Cc1ccccc1)NC(=O)[C@@H](N)CCCCNC(=O)OCc1cn(CC(=O)NCCc2ccc(S(N)(=O)=O)cc2)nn1 (H-K(X2)FFWFYY-NH2) | 0.104 |
